From PubChem BioAssay AID651630 (Sanford-Burnham Center for Chemical Genomics, 2012)
The source made the active and inactive calls.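 Rule for the calls: active = lipid-stain IC50 at or below a set limit, with nuclear-stain toxicity IC50 at least five times higher; inactive = the rest.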

Legend:
DAPI = assay: triacylglycerol accumulation inhibitor potency, dose response, cell-based, panel, Nile Red and DAPI fluorescence, H9c2 (AID 651630); details: H9c2 cells, DAPI nuclear fluorescence (cytotoxicity counter-readout), oleic acid;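 note: cells exposed to compound overnight before fixation and staining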
TAG = assay: as above; details: H9c2 cells, Nile Red TAG fluorescence, oleic acid

Structure (SMILES) | IC50 cytotoxicity (DAPI nuclear signal decrease) (DAPI; mean of runs) | IC50 cytotoxicity (DAPI nuclear signal decrease) (DAPI; run 1) | IC50 cytotoxicity (DAPI nuclear signal decrease) (DAPI; run 2) | IC50 (TAG; mean of runs) | IC50 (TAG; run 1) | IC50 (TAG; run 2)
O=C1N[C@@H](Cc2ccccc2)COC(=O)[C@@H](Cc2ccc(F)cc2)CC/C=C/C[C@@H]1CC(=O)N(CCO)Cc1ccccc1 | > 25 µM (inactive) | > 25 µM | > 25 µM | 20.4 µM (inactive) | 18.5 µM | 22.3 µM
COc1cc(C(CCN2CCCCC2)c2c(OC)cc(OC)c3c(-c4ccccc4)cc(=O)oc23)cc(OC)c1OC (centres undefined) | > 25 µM (inactive) | > 25 µM | > 25 µM | > 25 µM (inactive) | > 25 µM | > 25 µM
c1ccc(-c2nc(N3CCOCC3)cc(N3CCOCC3)n2)cc1 | > 25 µM (inactive) | > 25 µM | > 25 µM | 9.99 µM | 5.81 µM | 14.2 µM
Cc1ccc(Oc2ccc(S(=O)(=O)N3CCOCC3)cc2C(N)=O)c(-n2nc3ccccc3n2)c1 | > 25 µM (inactive) | > 25 µM | > 25 µM | > 25 µM (inactive) | > 25 µM | > 25 µM
COc1cccc(/C=N/NC(=O)CSc2cccc3cccnc23)c1 | > 25 µM (inactive) | > 25 µM | > 25 µM | > 25 µM (inactive) | > 25 µM | > 25 µM
CCOc1ccc(CCNC(=O)CCc2nc(-c3ccc(C)cc3)no2)cc1OCC | > 25 µM (inactive) | > 25 µM | > 25 µM | > 25 µM (inactive) | > 25 µM | > 25 µM
COc1cc(C2C3=C(COC3=O)Oc3cc4c(cc32)OCO4)ccc1O (centres undefined) | > 25 µM (inactive) | > 25 µM | > 25 µM | 15.6 µM (inactive) | 14.9 µM | 16.2 µM
CCOc1ccccc1NC(=O)C1CCN(C(=O)NCc2ccccc2)CC1 | > 25 µM (inactive) | > 25 µM | > 25 µM | > 25 µM (inactive) | > 25 µM | > 25 µM
COc1ccc(S(=O)(=O)N2N=C(C)Oc3ccccc3C2=O)cc1 | > 25 µM (inactive) | > 25 µM | > 25 µM | > 25 µM (inactive) | > 25 µM | > 25 µM
Nc1c(C(=O)NC2CCCC2)c2nc3ccccc3nc2n1/N=C/c1cccnc1 | > 25 µM (inactive) | > 25 µM | > 25 µM | 19 µM (inactive) | 15 µM | 23 µM
CC(C)CC(N)c1csc(NC(=O)Nc2ccccc2Cc2ccccc2)n1 (centres undefined) | – | 20.4 µM | > 25 µM | > 25 µM (inactive) | > 25 µM | > 25 µM
O=C(NCCc1c[nH]c2ccccc12)C1CCC(Cn2c(=S)[nH]c3ccccc3c2=O)CC1 (centres undefined) | > 25 µM (inactive) | > 25 µM | > 25 µM | – | > 25 µM | 22.2 µM
Nc1c(Cl)cc(-c2csc(N3CCCC3c3nc4cc(Cl)c(N5CCCCC5)cc4n3CCOCCO)n2)cc1Cl (centres undefined) | > 25 µM (inactive) | > 25 µM | > 25 µM | 11.4 µM | 11.6 µM | 11.1 µM
COc1cc(OC)c2c(-c3ccccc3)cc(=O)oc2c1C(CCN1CCCCC1)c1ccc(N(C)C)cc1 (centres undefined) | – | 15.9 µM | > 25 µM | – | 9.65 µM | > 25 µM
COc1ccc2sc(-c3ccc(S(C)(=O)=O)cc3)c(C#Cc3cncn3C)c2c1 | > 25 µM (inactive) | > 25 µM | > 25 µM | > 25 µM (inactive) | > 25 µM | > 25 µM
Nc1cc2c(cc1Br)[nH]c(=O)c1ccccc12 | > 25 µM (inactive) | > 25 µM | > 25 µM | 8.3 µM | 8.66 µM | 7.94 µM
CN(C)c1ccc(NC(=O)Nc2nc(C(N)C3CCCCC3)cs2)cc1 (centres undefined) | > 25 µM (inactive) | > 25 µM | > 25 µM | > 25 µM (inactive) | > 25 µM | > 25 µM
CCOc1ccc(NC(=O)CN(C)C(=O)c2cc(-c3ccc(OC)cc3)nc3ccccc23)cc1OCC | > 25 µM (inactive) | > 25 µM | > 25 µM | 10.1 µM | 9.04 µM | 11.1 µM
Cc1ccsc1-c1nc(C(N)=O)c2[nH]c(=O)n(-c3ccc(Cl)cc3)c2n1 | > 25 µM (inactive) | > 25 µM | > 25 µM | > 25 µM (inactive) | > 25 µM | > 25 µM
COc1ccc(-c2ccc3[nH]c4c(c3c2)CCN2C(=O)[C@@H]([C@H](C)O)[C@@H](N(C)C(=O)Nc3cc(Cl)cc(Cl)c3)C[C@@H]42)cc1 | > 25 µM (inactive) | > 25 µM | > 25 µM | 19.5 µM (inactive) | 17.4 µM | 21.5 µM
CCOc1ccc(CCNC(=O)CN2CCN(Cc3ccccc3F)C2=O)cc1OCC | – | > 25 µM | > 25 µM | 3.01 µM | 2.44 µM | 3.57 µM
CCOC(=O)[C@H]1[C@H]2COc3ccc(C)cc3[C@@H]2N2C(=O)c3cc(Br)ccc3NC(=O)[C@@]12C | > 25 µM (inactive) | > 25 µM | > 25 µM | 21.6 µM (inactive) | 22.2 µM | 21 µM
Cc1noc(C)c1-c1ccc2ncnc(NCC3CCCCN3C)c2c1 (centres undefined) | > 25 µM (inactive) | > 25 µM | > 25 µM | > 25 µM (inactive) | > 25 µM | > 25 µM
Nc1ccc(C#Cc2c(-c3ccsc3)oc3ccc(N4CCOCC4)cc23)cc1 | > 25 µM (inactive) | > 25 µM | > 25 µM | 11.4 µM | 10.8 µM | 11.9 µM
